Reference: US4980365A, “N-substituted-5,6-dimethoxy-1,2-benzisoxazole-3-propanamine and related compounds as analgesic and hypotensive agents” (Hoechst-Roussel Pharmaceuticals Inc., priority 1987, dated 1990)
Read-outs that look alike come from different tables or passages of the source.

How the values were obtained:
[1] = system: 2-phenyl-1,4-benzoquinone-induced writhing; test: 2-phenyl-1,4-benzoquinone-induced writhing test in mice (analgesic activity, phenylquinone writhing); assay type: in vivo; settings: Mus musculus, sc, read-out: ED50 (Analgesic Activity, Phenylquinone Writhing)
From the text: Compounds of this invention having formula I are useful as analgesic agents due to their ability to alleviate pain in mammals. […] Exptl. Biol. Med. […], 729 (1957)].

[2] = system: spontaneous hypertensive rat; test: Antihypertensive activity in the spontaneous hypertensive rat, indirect tail cuff method; assay type: in vivo; settings: at 50 mg/kg, p.o.; treated orally for three days, measured on the third day
Method: Compounds of the present invention are also useful as antihypertensive agents due to their ability to depress blood pressure in mammals. Antihypertensive activity is measured in the spontaneous hypertensive rat by the indirect tail cuff method described in "Methods in Pharmacology", A. Schwartz, Ed., Vol. I, Appleton-Century Crofts, New York, N.Y., 1971, p. 135. In this procedure a group of five animals are treated orally for three days with the test compound in relation to a control group of the same number. The drop in blood pressure is measured on the third day following administration. The antihypertensive activities of some of the compounds, expressed as a decrease in mean arterial blood pressure (in mm Hg), are given in Table 2.

α1-adrenergic receptor = test: [3H]-WB4101: α1-adrenergic receptor binding in rat brain; settings: rat brain membranes minus cerebella, 0.5 nM 3H-WB4101, pH 7.7, 15 minutes; read-out: [3H]-WB4101: α1-Adrenergic Receptor (IC50) Antagonist Activity
Method: RECEPTOR BINDING IN RAT BRAIN
This in vitro [^3 H]-WB4101 receptor binding assay quantitates the primary blood pressure lowering effects through α1 -receptor blockade. […] WB4101 labels an antagonist binding site on the α1 -adrenoceptor, since it is preferentially displaced by antagonists while α-noradrenergic agonists preferentially displace the ^3 H-agonists
57.2 g Tris HCl 16.2 g Tris base q.s. to 1 liter (0.5M Tris buffer, pH 7.7 at 25° C.).
Make a 1:10 dilution in distilled H2 O (0.05M Tris Buffer, pH 7.7)
[Phenoxy-3-^3 H(N)]-WB4101, (2-(2,6-dimethoxyphenoxyethyl)aminomethyl-1,4-benzodioxane, (20-25 Ci/mmol) is obtained from New England Nuclear.
L-norepinephrine bitartrate is obtained from Sigma Chemical Co.
A 10 mM stock solution of norepinephrine is made up in 0.01N HCl and 20 micro liter added to three tubes to determine nonspecific binding. This yields a final concentration of 100 micro liter in the assay.
For most assays, a 1 mM stock solution is made up in a suitable solvent and serially diluted, such that the final concentration in the assay ranges from 10^-5 to 10^-8 M. Seven concentrations are usually used for each assay.
Male Wistar rats (100-150 g) are killed by decapitation and their brains rapidly removed. […]
Sample tubes are kept on ice for additions, then vortexed and incubated for 15 minutes at 15° C. […] The filters are counted in 10 ml of liquid scintillation cocktail. […]

Row | SMILES | ED50 ([1]; mice) [mg/kg] | Pressure Drop (decrease in mean arterial blood pressure) [2] [mmHg] | IC50 (α1-adrenergic receptor) [nM] | ED50 [1] [mg/kg]
1 | COc1cc2onc(CCCN3CCN(c4ccccc4OC)CC3)c2cc1OC [3-[3-[4-(2-methoxyphenyl)-1-piperazinyl]propyl]-5,6-dimethoxy-1,2-benzisoxazole] | 1.7 | 68 | – | –
2 | COc1ccc([C@@H]2Sc3ccccc3N(CCN(C)C)C(=O)[C@@H]2OC(C)=O)cc1 [Diltiazem, reference compound] | – | 39 | – | –
3 | COc1cc2onc(CCCNCCc3ccccc3)c2cc1OC.Cl [N-(2-phenylethyl)-5,6-dimethoxy-1,2-benzisoxazole-3-propanamine hydrochloride] | – | 32 | 83 | –
4 | COc1cc2onc(CCCNCCc3ccc(F)cc3)c2cc1OC.Cl [N-[2-(4-fluorophenyl)ethyl]-5,6-dimethoxy-1,2-benzisoxazole-3-propanamine hydrochloride] | 3.8 | – | – | –
5 | COc1cc2onc(CCCN(C)CCc3ccccc3)c2cc1OC.O=C(O)C(=O)O [N-methyl-N-(2-phenylethyl)-5,6-dimethoxy-1,2-benzisoxazole-3-propanamine oxalate] | 13.6 | – | 67 | –
6 | CC(C)=CCN1CCC2(C)c3cc(O)ccc3CC1C2C (stereo not drawn) [pentazocine, reference compound] | – | – | – | 1.3
